Measurements as given in US20120129919A1, “POLYCATIONIC AMPHIPHILIC CYCLOOLIGOSACCHARIDES AND THE USE THEREOF AS MOLECULAR TRANSPORTERS” (priority 2009, published 2012).

Legend:
[1] = test system: CHO-k1 cells; assay: In vitro gene transfection of pEGFP-N3 complexes, GFP fluorescence; assay type: cell-based, Chinese hamster; conditions: pEGFP-N3 plasmid, N/P ratios between 0.1 and 20, FIG. 5
Experimental: Ovarian cells of wild-type Chinese hamsters (CHO-k1; no. ATCC CCL-61) were cultured in Dulbecco's modified Eagle's medium (DMEM) supplemented with 10% (v/v) of foetal bovine serum, 2 mM glutamine plus, 100 U/ml of penicillin and […] of streptomycin. Prior to the transfection, the cells were seeded in 24 well plates and incubated for 24 h, to reach an 80%-90% cell confluence. For the transfection experiments, plasmid pEGFP-N3 (1 μg) was mixed with the corresponding CD derivative at N/P ratios ranging between 0.1 and 20, at room temperature for 20 minutes, in a final volume of 20 μl. The mixture was diluted to 0.5 ml with DMEM without serum and added to each well. The untransfected cells and the naked pEGFP-N3 were used as negative controls. As a positive control, a transfection experiment was performed using 1 μl of Lipofectamine™ 2000 (Invitrogen) and 1.0 μg of DNA, following the manufacturer's instructions. The cells were incubated with the DNA-polycationic amphiphilic βCD mixtures for 18 h; subsequently, the transfection medium was eliminated and the cells were further cultured in DMEM medium plus 10% FBS for an additional 48-h period.
The transfected cells were washed three times with PBS and 600 μl of 0.5% triton X-100 in PBS. The plates were stirred for 10 min at room temperature, the lysate was recovered and the fluorescence was quantified in a Shimadzu RF-5301PC fluorimeter with an excitation wavelength of 460 nm (5 nm) and an emission wavelength of 510 nm (10 nm). The protein concentration was measured using the Bio-Rad protein assay (Hercules, Calif., USA).

[2] = test system: DNA of pEGFP-N3; assay: Gel electrophoresis shift assay (binding/complexation of pDNA); conditions: pEGFP-N3 plasmid, N/P ratios between 0 and 10, FIG. 3
Experimental: Plasmid pEGFP-N3, used for the preparation of the DNA complexes and the transfection assay, is a 4729-bp (base pairs) plasmid. The quantities of polycationic amphiphilic βCD derivatives used were calculated on the basis of the desired DNA concentration, 0.02 mg/ml (50 μM phosphate), the N/P ratio, the molecular weight and the number of positive charges in the selected CD derivative. The experiments were performed for N/P 5, 10, 30 and 50. The DNA was diluted in milli-Q water to a final phosphate concentration of 50 μM; subsequently, the desired quantity of CD derivative was added from a 20-mg/ml solution (1:2 of Me2SO-water). The preparation was stirred with a vortex for a few seconds and incubated for 30 minutes.
The binding capacity of the polycationic amphiphilic DNA-βCD complex was analysed by gel electrophoresis. The stock solutions of βCD derivatives were prepared in 1:2 Me2SO-water, and the DNA was dissolved in 150 mM NaCl. The DNA of pEGFP-N3 (10 μl at 0.1 μg/μl) was mixed with an equal volume of βCD derivative using N/P ratios ranging between 0 and 10, and incubated for 30 min at room temperature prior to the addition of loading buffer (2 μl). One aliquot (5 μl) of each sample was subjected to agarose gel electrophoresis (0.8% w/v) in TAE buffer (40 mM Tris-acetate, 1 mM EDTA). The electrophoresis was performed at 7 V/cm and the gels were stained with ethidium bromide following the electrophoresis. The quantification of the intensity of the bands was performed with the NIH Image software (Rasband et al. 1995. Microbeam Analysis Soc. J. 4, 137-149). A value of 100 was assigned to the intensity of the band for naked DNA.

[3] = test system: DNA of pEGFP-N3 (DNase I digestion); assay: DNase protection assay of pDNA complexes; conditions: for protection of pDNA against degradation by DNase: pEGFP-N3 complexes, N/P=5, DNase I 45 minutes at 37° C., FIG. 4
Experimental: The DNA of pEGFP-N3 (10 μl at 0.1 μg/μl) was mixed with an equal volume of stock solution of βCD derivative using N/P=5, and incubated for 30 min at room temperature. 15 μl of a DNase I solution (0.1 mg/ml in 50 mM Tris-HCl, pH 8, 2000 U/mg) were added to the mixture and it was incubated for 45 minutes at 37° C. Following the digestion, 20 μl of a 10% SDS solution were added and the samples were incubated for 2 h at 85° C. Finally, one aliquot (20 μl) of each sample was subjected to agarose gel electrophoresis (0.8% w/v) in TAE buffer.

Substance	transfection efficiency [1]	complexation capacity / compaction of pDNA, stability of the CD:pDNA complex [2]	protection of pDNA against degradation by DNase [3]	protection of pDNA against the environment ([3]; 10:pDNA complexes, N/P values greater than 4)
Heptakis[6(2-(4-aminomethyl-1H-1,2,3-triazole-1-yl)acetamidoethylthio)-6-deoxy-2,3-di-O-hexanoyl]cyclomaltoheptaose [Compound 16]	moderate increases	moderate increases	moderate increases	–
Heptakis[6-(4-aminomethyl-1H-1,2,3-triazole-1-yl)-6-deoxy-2,3-di-O-hexanoyl]cyclomaltoheptaose heptahydrochloride [Compound 9]	transfection levels remained very low	improved complexation capacities of pDNA as compared to non-amphiphilic analogue 18	plasmid still remains accessible to DNase	–
Heptakis[6-(4-(2,2-diaminoethyl)aminomethyl)-1H-1,2,3-triazole-1-yl)-6-deoxy-2,3-di-O-myristoyl]cyclomaltoheptaose [Compound 11]	drastically reduced the transfection capacity	did not modify the complexation efficiency	–	–
Heptakis[6(2-(4-(2,2-diaminoethylaminomethyl)-1H-1,2,3-triazole-1-yl)acetamidoethylthio)-6-deoxy-2,3-di-O-hexanoyl]cyclomaltoheptaose [Compound 17]	the rigid motif was more advantageous than the flexible architecture	the rigid motif was more advantageous than the flexible architecture	the rigid motif was more advantageous than the flexible architecture	–
Heptakis[6-(4-(2,2-diaminoethylaminomethyl)-1H-1,2,3-triazole-1-yl)-6-deoxy-2,3-di-O-hexanoyl]cyclomaltoheptaose tetradecahydrochloride [Compound 10]	surprisingly high transfection efficiencies, analogous to those obtained using Lipofectamine™ 2000	stable 10:pDNA complexes	–	complete protection
